Earlier results in patent US20260007780A1, “LIQUID VEHICLE FORMULATION FOR ENTEROGRAPHY EXAMINATION” (priority 2008, published 2026).

solubility in water: practically insoluble in water
Structure (SMILES): CC(=O)Nc1c(I)c(NC(C)=O)c(I)c(C(=O)O)c1I [Diatrizoic acid, diatrizoic acid]
